The values that follow come from the NIST ThermoML archive (doi:10.1021/acs.jced.6b00040).

The conditions of this data set: Liquid, Ebulliometric method (Recirculating still).

Numbers after ± are expanded uncertainties.

`CC(=O)OC(C)C` [1-methylethyl ethanoate]: the “vapor or sublimation pressure” value (361.45 K) came to 101.3 ± 0.8 kPa.

Take `C[S+](C)[O-]` [dimethyl sulfoxide]: for the setting “463.38 K”, the “vapor or sublimation pressure” value was 101.3 ± 0.8 kPa.

Consider `CC(C)O` [propan-2-ol], for which the “vapor or sublimation pressure” value (355.33 K) was determined as 101.3 ± 0.8 kPa.
